Common to all, as to type: in vivo
For assay [1], the system named is Western Corn Rootworm (Diabrotica virgifera virgifera, DIABVI, WCR). The assay can be described thus: Bioassay 8: western corn rootworm, soil drench, corn root protection. The following applies: AI alone, DIABVI, soil drench, 13 days. The protocol:
Corn seeds were planted in steam pasteurized soil filled greenhouse pots. Western corn rootworm Diabrotica virgifera virgifera eggs supplied from the Corteva Agriscience in Johnston, IA US, were suspended in a 0.08% agar solution added into the soil. Stock solutions of F1 and active ingredients were prepared at a concentration of either 250 or 500 ugai/10 mL for F1 and active ingredients at the ratios of (F1:AI) 1:0.004; 1:0.01; 1:0.02; 1:0.04; 1:0.08; 1:0.1; 1:0.15; 1:0.2; 1:0.4; 1:2; or 1:4, using a 1:1 solution of acetone:water as a diluent. A soil application of solutions were applied as a 10 mL drench over the soil. Plants were grown in the greenhouse for 13 days at 25 C after which the roots were removed from the soil, washed, and measured to determine the length of the median nodal roots. The measured lengths were compared to the infested and un-infested untreated checks to determine the mean percent control offered to protect the corn roots.

Assay [2] has as its system Fall Armyworm (Spodoptera frugiperda, LAPHFR, FAW). In words: Bioassay 7: fall armyworm, artificial diet, 96 well plate. The protocol:
(§1) The test solutions were tested against CEW, FAW, BAW, and SBL using the following procedure: an artificial lepidopteran diet (Multispecies Lepidopteran Diet, Southland Products) was distributed in 96 well plate. Twenty μL of test solution was pipetted onto a cell in the bioassay plate. […] Each treatment was replicated 5 times for each species. Approximately five first instar CEW, FAW, BAW, or SBL larva were placed on top of the diet in each cell and was contained with a clear perforated adhesive lid. Test trays were held at approximately 25° C. and ambient relative humidity prior to grading. After five days, the number of cells where all the larvae were dead were recorded as 100% and averaged across all replicates; then the percent control was measured using Abbott's correction formula (W. S. Abbott, J. Econ. Entomol. 18 (1925), pp. 265-267) as follows:
(§2) where X=No. of live larvae on solvent check and Y=No. of live larvae on treated diet. In Table 7 the “Expected % Control” was calculated using the method described in Colby S. R., Weeds, 1967, 15, 20-22. Bioassay 8: Western Corn Rootworm (Diabrotica virgifera virgifera, DIABVI, “WCR”)

Assay [3] relates to Corn Earworm (Helicoverpa zea, HELIZE, CEW). In words: Bioassay 7: corn earworm, artificial diet, 96 well plate. As to conditions: AI alone at 0.4 wt %. The protocol: as §1, §2
Assay [4] deals with Soybean Looper (Chrysodeixis includens, PSEPIN, SBL). The assay can be described thus: Bioassay 7: soybean looper, artificial diet, 96 well plate. As to conditions: CL; AI alone at 0.4 wt %. The protocol: as §1, §2
Assay [5] deals with Beet Armyworm (Spodoptera exigua, LAPHEG, BAW). The assay can be described thus: Bioassay 7: beet armyworm, artificial diet, 96 well plate. The following applies: AI alone at 0.4 wt %. As for the experimental part: as §1, §2

`CN/C(=N\[N+](=O)[O-])NCc1cnc(Cl)s1` [Clothianidin]: the “Average % Control AI” value in assay [1] (UgActive AI 1) is 14.8%.

Take `CC1(C)[C@H](C(=O)O[C@H](C#N)c2cccc(Oc3ccccc3)c2)[C@@H]1C=C(Br)Br` [Deltamethrin]: the “Average % Control AI” value stood at 0.0% in assay [2] (AI alone at 0.004 wt %) and 17.0% in assay [1] (UgActive AI 1).

With `CO/N=C(/C1=NOCCO1)c1ccccc1Oc1ncnc(Oc2ccccc2Cl)c1F` [Fluoxastrobin], in assay [1] (UgActive AI 1), the “Average % Control AI” value turned out to be 0.0%.

`OC(Cc1ccccc1Cl)(Cn1nc[nH]c1=S)C1(Cl)CC1` (stereo not drawn) [Prothioconazole]: the “Average % Control AI” value in assay [1] (UgActive AI 20) and in assay [3] was 0.0% in each case.

For `Cn1cc(C(=O)Nc2ccccc2C2CC2C2CC2)c(C(F)F)n1` (stereo not drawn) [Sedaxane], the “Average % Control AI” value in assay [2] (AI alone at 0.4 wt %), in assay [4], in assay [1] (UgActive AI 10), in assay [5] and in assay [3] was 0.0% throughout.

With `CC1(C)CCC(=Cc2ccc(Cl)cc2)C1(O)Cn1cncn1` (stereo not drawn) [Titriconazole], the “Average % Control AI” value in assay [1] (UgActive AI 100), in assay [5] and in assay [3] was 0.0% throughout.

As for Inpyrfluxam, the “Average % Control AI” value was 0.0% in assay [2] (AI alone at 0.4 wt %), 0.0% in assay [4], 0.0% in assay [1] (UgActive AI 1) and 12.5% in assay [3].

Thiabendazole: the results for the “Average % Control AI” value in assay [1] (UgActive AI 50), in assay [5] and in assay [3] were 16.8%, 0.0% and 0.0%, respectively.

Source of the values: patent publication US20260182575A1, “MOLECULES HAVING PESTICIDAL UTILITY AND INTERMEDIATES AND PROCESSES RELATED THERETO” (CORTEVA AGRISCIENCE LLC, priority 2022, published 2026).
